Entries after “also recorded” stand apart in the source; their conditions may differ. Read-outs that look alike come from different tables or passages of the source.
What was measured:
MDR1 [1] = type: cell-based, human
Experimental: The times of drug exposure are indicated.
(§1) (Commercially-available kits (for example, from GIBCO/BRL, Gaithersburg, Md.) can be advantageously modified for making cDNA using random hexamers.) PCR is then performed using the following primers: […]
Next, it was tested whether drug-induced MDR1 expression was maintained after the cytotoxic treatment. […] At different time points, MDR1 expression in the surviving cells was analyzed by dye efflux and immunofluorescence labeling with UIC2 (FIG. 3c) or by cDNA-PCR (FIG. 4e).

P-glycoprotein = P-glycoprotein (Homo sapiens, UniProt P08183); assay: Rh123 accumulation assay of P-glycoprotein activity in human PBL
Experimental: KG1 cell line was maintained in Iscove's modified Dulbecco medium with 20% fetal calf serum (FCS) and 2 mM L-glutamine, 100 units/ml penicillin and 100 μg/ml streptomycin (GIBCO Laboratories, Grand Island, N.Y.).
A functional assay was used to detect changes in P-glycoprotein activity in human PBL treated with different agents that induce lymphoid differentiation or activation, based on flow cytometric analysis of cellular accumulation of Rh123, which is a P-glycoprotein-transported fluorescent mitochondrial dye. In this assay, cells expressing little or no P-glycoprotein stain brightly with Rh123, whereas cells with higher levels of P-glycoprotein activity appear Rh123-dull. […] Since the best-known cellular effect of TPA is the stimulation of PKC, it was also tested whether DOG, a cell-permeable diacylglycerol and a physiological stimulant of PKC, would have an effect on Rh123 accumulation in PBL.

tumor [2] = conditions: cited from earlier work; for antitumor activity in vivo: literature
tumor [3] = conditions: nude mice; Meyer et al., 1989; cited from earlier work
MDR1 [4] = assay: cDNA-PCR / flow cytometric analysis of MDR1 induction by PKC agonists; type: cell-based, human
Experimental: Neomycin sulfate (Calbiochem) was dissolved in sterile, deionized water.
P-glycoprotein expression on the cell surface was analyzed using a P-glycoprotein-specific mouse IgG2a monoclonal antibody (mAB) UIC2 (Mechetner and Roninson, 1992, Proc. Natl. Acad. Sci. USA 89:5824-5828). Mouse IgG2a isotype control antibody was obtained from Sigma. For staining of PBL with UIC2 mAB or isotype control, 10^6 cells were stained at 4° C. with 10 μg of the antibody for 30 minutes and, after two washes, stained for 30 minutes with 10 μg of FITC-conjugated goat anti-mouse IgG2a antibody (Fisher Scientific, Fairlawn, N.J.), diluted 1:2 with PBS plus 2% FCS. Cells were then washed twice with ice-cold PBS plus 2% FCS, stained with PI and kept on ice until analysis. Essentially the same protocol was used for staining of other cell types except that 2 μg of the secondary antibody were used per 10^6 cells. In some experiments, phycoerythrine (PE)-conjugated goat anti-mouse IgG2a was used as the secondary antibody; no PI was added in such cases. Flow cytometric analysis was conducted on a Coulter Epics 753 Flow Cytometer.
RNA was extracted from approximately 10^6 cells by a small-scale sodium dodecyl sulfate extraction procedure (Peppel and Baglioni, 1990, BioTechniques 9:711-713). In the alternative, RNA was isolated from cells using the TRIzol method (commercially available from GIBCO/BRL). cDNA synthesis and polymerase chain reaction (PCR) amplification of MDR1 and β2 -microglobulin cDNA sequences were carried out essentially as described (Noonan et al., 1990, Proc. Natl. Acad. Sci. USA 87:7160-7164; Noonan and Roninson, 1991, pp. 319-333 In Roninson (Ed.), Molecular and Cellular Biology of Multidrug Resistance in Tumor Cells, Plenum Press, New York). Briefly, cDNA was prepared using the method of Krug and Berger (1987, Meth. Enzymol. 152: 316-324), with the modification that random hexamers were substituted for oligo(dT) as primers for cDNA synthesis. (Commercially-available kits (for example, from GIBCO/BRL, Gaithersburg, Md.) can be advantageously modified for making cDNA using random hexamers.) PCR is then performed using the following primers: […]
(§2) (where β2 M represents β2 microglobulin). PCR was performed for β2 M experiments under a regime consisting of 1 cycle comprising denaturation at 94° C. for 3 minutes, primer annealing at 60° C. for 30 seconds, and primer extension at 72° C. for 1 minute, followed by 19 cycles comprising denaturation at 94° C. for 30 seconds, primer annealing at 60° C. for 30 seconds, and primer extension at 72° C. for 1 minute, followed by a final cycle comprising denaturation at 94° C. for 30 seconds, primer annealing at 60° C. for 30 seconds, and primer extension at 72° C. for 5 minutes. MDR1 cDNA sequences were amplified using the identical protocol as for β2 M, but extending the amplification from 19 cycles to 25 cycles. In addition, the cDNA-PCR amplification protocol contained the following modifications: (i) Taq DNA polymerase was added to the PCR mixtures after initial heating of the samples to 94° C. (ii) The yield of the β2 -microglobulin-specific band, obtained after 22-28 cycles of PCR, was used as the primary criterion for equalizing the starting amounts of the cDNA templates in different preparations, in order to account for differential RNA degradation in cells subjected to different types of treatment. […] PCR products were detected by autoradiography.

MDR1 [5] = assay: Inhibition of cytotoxic drug (Ara-C) induced MDR1 expression by protein kinase inhibitors; type: cell-based, human
Experimental: FIG. 5. Effect of protein kinase inhibitors on MDR1 mRNA induction by cytotoxic drugs in H9 cells. […]
as §1, §2
Cells were plated in 6-well Falcon tissue culture plates at 3,300 cells per well, and incubated in the appropriate concentrations of drugs. Each of the protein kinase inhibitors to be tested were added at their appropriate final concentrations 45 minutes prior to MDR1 induction by the addition of Ara-C or TPA, with the exception of herbimycin A, which was added 12 hours prior to Ara-C or TPA, and tyrphostins A25 and B46, which were each added 16 hours prior to MDR1 induction by the addition of Ara-C or TPA. Cells were incubated overnight (TPA) or for 10 hours (Ara-C) at 37° C. under an atmosphere of 5% CO2 after the addition of the MDR1 inducing agents before harvesting for cDNA-PCR analysis.
In addition to these conditions, the analysis of certain drugs imposed added requirements. For experiments using calphostin C, cells were incubated under direct white light illumination. For experiments using D,L-threo-sphingosine, the cell culture medium was pre-treated with the appropriate concentration of the drug for one hour at 37° C. with continuous gentle mixing. After this pre-treatment, cells were resuspended in media supplemented with drug and incubated for 45 minutes as described above.
cDNA-PCR analyses on each culture treated with drugs, or in control cultures incubated in the absence or presence of Ara-C or TPA alone, were performed as described in Section 6.1.3 above.
To further evaluate the capacity of protein kinase inhibitors to suppress MDR1 induction by cytotoxic drugs and PKC agonists, H-9 human T cell leukemia cells were used in cDNA-PCR assays to examine induced MDR1 mRNA expression levels in the presence of such protein kinase inhibitors.

MRP = assay: Inhibition of MRP expression in H-9 cells; type: cell-based, human; parameters: Inhibition of MRP Expression: key to the marks not given beside the values
Experimental: PCR was performed using the following primers: […]
(where β2 M represents β2 microglobulin). PCR was performed for β2 M experiments under a regime consisting of 1 cycle comprising denaturation at 94° C. for 3 minutes, primer annealing at 60° C. for 30 seconds, and primer extension at 72° C. for 1 minute, followed by 19 cycles comprising denaturation at 94° C. for 30 seconds, primer annealing at 60° C. for 30 seconds, and primer extension at 72° C. for 1 minute, followed by a final cycle comprising denaturation at 94° C. for 30 seconds, primer annealing at 60° C. for 30 seconds, and primer extension at 72° C. for 5 minutes.

PKC = conditions: literature; cited from earlier work

P-glycoprotein, sequence (P08183 whole entry): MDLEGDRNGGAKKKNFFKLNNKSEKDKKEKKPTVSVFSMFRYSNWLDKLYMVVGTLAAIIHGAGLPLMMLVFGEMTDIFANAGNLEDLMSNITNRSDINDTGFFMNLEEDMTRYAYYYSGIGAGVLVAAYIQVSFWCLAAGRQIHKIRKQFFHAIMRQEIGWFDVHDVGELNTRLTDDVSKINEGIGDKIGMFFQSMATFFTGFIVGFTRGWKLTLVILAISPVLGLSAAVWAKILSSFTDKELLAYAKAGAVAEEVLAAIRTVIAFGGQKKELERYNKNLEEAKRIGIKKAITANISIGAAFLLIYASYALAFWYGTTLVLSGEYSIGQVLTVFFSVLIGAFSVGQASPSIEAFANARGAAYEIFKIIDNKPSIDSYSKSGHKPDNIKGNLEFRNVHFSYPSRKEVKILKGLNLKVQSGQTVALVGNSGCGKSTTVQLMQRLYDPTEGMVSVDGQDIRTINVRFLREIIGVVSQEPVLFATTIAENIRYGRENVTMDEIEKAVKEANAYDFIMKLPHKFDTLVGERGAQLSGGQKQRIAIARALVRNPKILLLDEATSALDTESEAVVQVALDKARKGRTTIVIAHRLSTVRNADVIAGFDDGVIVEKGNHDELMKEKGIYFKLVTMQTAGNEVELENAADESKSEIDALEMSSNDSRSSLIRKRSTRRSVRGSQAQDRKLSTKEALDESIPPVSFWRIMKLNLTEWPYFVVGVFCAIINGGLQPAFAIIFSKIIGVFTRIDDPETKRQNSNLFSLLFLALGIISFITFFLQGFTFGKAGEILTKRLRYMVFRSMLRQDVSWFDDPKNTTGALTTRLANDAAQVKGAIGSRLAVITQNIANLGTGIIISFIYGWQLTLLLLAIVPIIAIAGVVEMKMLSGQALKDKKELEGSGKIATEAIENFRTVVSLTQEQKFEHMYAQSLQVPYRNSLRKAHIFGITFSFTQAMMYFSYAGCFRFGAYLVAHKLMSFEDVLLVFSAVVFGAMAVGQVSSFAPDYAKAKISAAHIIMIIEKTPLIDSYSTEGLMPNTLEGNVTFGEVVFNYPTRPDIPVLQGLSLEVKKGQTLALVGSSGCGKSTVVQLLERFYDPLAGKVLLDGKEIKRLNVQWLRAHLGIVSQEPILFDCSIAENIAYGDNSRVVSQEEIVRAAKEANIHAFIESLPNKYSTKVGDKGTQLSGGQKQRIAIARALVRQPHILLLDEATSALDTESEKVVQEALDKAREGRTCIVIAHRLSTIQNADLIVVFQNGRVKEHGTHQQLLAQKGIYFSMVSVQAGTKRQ

O=c1[nH]cc(F)c(=O)[nH]1 [5-fluorouracil]
MDR1 induction, mRNA and protein levels (MDR1 [1]): MDR1 induction, both at the mRNA and at the protein levels, was observed

CNc1ccc2oc(C[C@H]3O[C@@]4(CC[C@H]3C)O[C@H]([C@H](C)C(=O)c3ccc[nH]3)[C@H](C)C[C@H]4C)nc2c1C(=O)O [A23187]
effect on P-glycoprotein activity (Rh123 accumulation) (P-glycoprotein; human PBL): No apparent effects on P-glycoprotein

CCN(CC)CCN1C(=O)c2c(c3c4cccc(Cl)c4n([C@@H]4O[C@H](CO)[C@@H](OC)[C@H](O)[C@H]4O)c3c3[nH]c4c(Cl)cccc4c23)C1=O [BMY 27557, 8-N-(diethylaminoethyl) rebeccamycin]
optimal total dose, i.p., nine equal injections per day at 12 mg/kg/injection (tumor [2]; i.p., Schurig et al., 1990): 108 mg/kg | optimal total dose, i.p., single dose (tumor [2]; i.p., Schurig et al., 1990): 64 mg/kg | antitumor activity in vivo (tumor [2]): antitumor activity in vivo

CO[C@@H]1[C@H](N(C)C(=O)c2ccccc2)C[C@H]2O[C@]1(C)n1c3ccccc3c3c4c(c5c6ccccc6n2c5c31)C(=O)NC4 [CGP 41 251]
anti-tumor effect at fraction of MTD (tumor [3]): 1/10 | maximum tolerated dose (MTD) (tumor [3]): 250 mg/kg

CCCCCCCC(=O)OCC(CO)OC(=O)CCCCCCC (stereo not shown) [DOG, 1,2-dioctanoylglycerol]
effect on P-glycoprotein activity (Rh123 accumulation) (P-glycoprotein; human PBL): decreased Rh123 accumulation | induction of MDR1 mRNA and P-glycoprotein (MDR1 [4]; H9 cells): clear-cut induction of MDR1 mRNA and P-glycoprotein | induction of MDR1 mRNA and P-glycoprotein (MDR1 [4]; K562 cells): clear-cut induction of MDR1 mRNA and P-glycoprotein

CN[C@@H]1C[C@H]2O[C@@](C)([C@@H]1OC)n1c3ccccc3c3c4c(c5c6ccccc6n2c5c31)C(=O)N[C@H]4O [UCN-01]
antitumor activity in vivo (tumor [2]): antitumor activity in vivo

COc1c(CC(C)OC(=O)Oc2ccc(O)cc2)c2c3c(CC(C)OC(=O)c4ccccc4)c(OC)c(=O)c4c(O)cc(OC)c(c5c(OC)cc(O)c(c1=O)c52)c43 (stereo not shown) [calphostin C]
prevention of MDR1 induction by chemotherapeutic drugs (MDR1 [5]; 1 μM with white light illumination): prevent MDR1 induction | inhibition of Ara-C induced MDR1 expression (MDR1 [5]; H-9 cells, 0.1 μM with white light illumination): greatly reduced | inhibition of Ara-C induced MDR1 expression (MDR1 [5]; H-9 cells, 1 μM with white light illumination): capable of inhibiting MDR1 expression

COc1ccc2c(c[n+](C)c3c4cc5c(cc4ccc23)OCO5)c1OC [chelerythrine]
prevention of MDR1 induction by chemotherapeutic drugs (MDR1 [5]; 5 μM): prevent MDR1 induction | inhibition of Ara-C induced MDR1 expression (MDR1 [5]; H-9 cells, 1 μM and 5 μM): Progressive dose-dependent inhibition | Inhibition of MRP Expression (MRP; 1-5 μM): ++++ | inhibition of MRP expression (MRP; 1-5 μM): strongly inhibited; also recorded: capable of inhibiting MRP expression

N.N.[Cl][Pt][Cl] [cisplatin]
MDR1 mRNA induction (MDR1 [1]; K562 cells): induce MDR1 mRNA expression | MDR1 induction, mRNA and protein levels (MDR1 [1]; human leukemia and solid-tumor derived cell lines, subpopulation of treated cells): MDR1 induction, both at the mRNA and at the protein levels, was observed

O=CN/C=C/c1cc(O)ccc1O [erbstatin]
inhibition of protein kinase C (PKC): protein kinase C inhibitors | antitumor activity in vivo (tumor [2]): antitumor activity in vivo

COc1cc([C@@H]2c3cc4c(cc3[C@@H](O[C@@H]3O[C@@H]5CO[C@@H](C)O[C@H]5[C@H](O)[C@H]3O)[C@H]3COC(=O)[C@H]23)OCO4)cc(OC)c1O [etoposide]
MDR1 induction, mRNA and protein levels (MDR1 [1]): MDR1 induction, both at the mRNA and at the protein levels, was observed

O=c1c(-c2ccc(O)cc2)coc2cc(O)cc(O)c12 [genistein]
inhibition of Ara-C induced MDR1 expression (MDR1 [5]; 150 μM): only weakly inhibited Ara-C induced MDR1 expression | inhibition of Ara-C induced MDR1 expression (MDR1 [5]; H9 cells, 25 μM Ara-C 10 h, 150 μM): +

COC1C=CC=C(C)C(=O)NC2=CC(=O)C=C(C2=O)C(OC)C(C)CC(OC)C(OC)C(C)C=C(C)C1OC(N)=O (stereo not shown) [herbimycin A]
inhibition of Ara-C induced MDR1 expression (MDR1 [5]; 0.35-3 μM): little or no capacity to inhibit Ara-C induced MDR1 expression; also recorded: ineffective at inhibiting MDR1 induction by Ara-C | inhibition of Ara-C induced MDR1 expression (MDR1 [5]; H9 cells, 25 μM Ara-C 10 h, 0.3-3 μM (12 h)): -

CN(Cc1cnc2nc(N)nc(N)c2n1)c1ccc(C(=O)N[C@@H](CCC(=O)O)C(=O)O)cc1 [methotrexate]
MDR1 induction, mRNA and protein levels (MDR1 [1]): MDR1 induction, both at the mRNA and at the protein levels, was observed | MDR1 mRNA expression (MDR1 [1]): MDR1 mRNA expression was induced | maintenance of MDR1 expression after removal of the drug (MDR1 [1]): least several weeks

N#CC(C#N)=Cc1cc(O)c(O)c(O)c1 [tyrphostin A25]
inhibition of Ara-C induced MDR1 expression (MDR1 [5]; H-9 cells, 50-100 μM): strongly inhibit Ara-C induced MDR1 expression; also recorded: inhibit Ara-C induced MDR1 expression

N#CC(=Cc1ccc(O)c(O)c1)C(=O)NCCCc1ccccc1 [tyrphostin B46]
inhibition of Ara-C induced MDR1 expression (MDR1 [5]; H-9 cells, 50-100 μM): strongly inhibit Ara-C induced MDR1 expression; also recorded: inhibit Ara-C induced MDR1 expression

IL-1α
effect on P-glycoprotein activity (Rh123 accumulation) (P-glycoprotein): No apparent effects on P-glycoprotein

neomycin sulfate
inhibition of Ara-C induced MDR1 expression (MDR1 [5]; H-9 cells, 10 mM): inhibit Ara-C induced MDR1 expression | Inhibition of MRP Expression (MRP; 10 mM): ++++ | inhibition of MRP expression (MRP; 10 mM): strongly inhibited; also recorded: capable of inhibiting MRP expression | inhibition of protein kinase C (PKC): protein kinase C inhibitors

Reference: US5972598A, “Methods for preventing multidrug resistance in cancer cells” (priority 1995, dated 1999)
